Reference: patent US5250283A, “Organic contrast agent analog and method of making same” (priority 1992, dated 1993)
Counter-ions that a name gives are not always drawn.

What was measured:
[1] = Biliary excretion and bile flow after i.v. TFA-IOP (100 umol/kg) or IOP (100 in text, 104 umol/kg in tables) in rats; settings: rat; for dose excreted at 10 min / dose excreted at 20 min / dose excreted at 0.5 h / dose excreted at 40 min / dose excreted at 50 min / dose excreted at 1 h / dose excreted at 70 min / dose excreted at 80 min / dose excreted at 1.5 h / dose excreted at 0 h: in vivo, iv, 100 umol/kg
Description: Tissues examined included liver, spleen, upper GI, lower GI, kidney, lung and heart. The length of each study was 90 minutes, during which time bile, urine and plasma samples were taken to monitor uptake and excretion. NMR relaxation rates for liver and plasma were also examined to note whether uptake of either compound might possible alter these parameters.

[2] = Urinary excretion after i.v. IOP or TFA-IOP in rats; assay type: in vivo; settings: rat
[3] = i.v., period 10-0 min (pre-injection)

## CCC(Cc1c(I)cc(I)c(NC(=O)C(F)(F)F)c1I)C(=O)O (centres unmarked) [TFA-IOP, N-trifluoroacetyl-iopanoic acid]
[1]; i.v., 0-10 min
  Bile flow per kg l.w.: 3.127 ml/min per kg l.w.
  Biliary excretion rate: .123 µmol/min
  Biliary excretion rate per kg b.w.: .282 umoles/min per kg b.w.
  Biliary excretion rate per kg l.w.: 9.411 umoles/min per kg l.w.
  umoles in bile sample: 1.23 UMOLES
[1]; i.v., 10-20 min
  Bile flow: .03675 mL/min
  Bile flow per kg b.w.: .08448 ml/min per kg b.w.
  Bile flow per kg l.w.: 2.823 ml/min per kg l.w.
  Biliary excretion rate: .212 µmol/min
  Biliary excretion rate per kg b.w.: .488 umoles/min per kg b.w.
  Biliary excretion rate per kg l.w.: 16.308 umoles/min per kg l.w.
  umoles in bile sample: 2.12 UMOLES
[1]; i.v., 20-30 min
  Bile flow: .04050 mL/min
  Bile flow per kg b.w.: .09310 ml/min per kg b.w.
  Bile flow per kg l.w.: 3.111 ml/min per kg l.w.
  Biliary excretion rate: .261 µmol/min
  Biliary excretion rate per kg b.w.: .599 umoles/min per kg b.w.
  Biliary excretion rate per kg l.w.: 20.020 umoles/min per kg l.w.
  umoles in bile sample: 2.61 UMOLES
[1]; i.v., 30-40 min
  Bile flow: .02992 mL/min
  Bile flow per kg b.w.: .06878 ml/min per kg b.w.
  Bile flow per kg l.w.: 2.298 ml/min per kg l.w.
  Biliary excretion rate: .233 µmol/min
  Biliary excretion rate per kg b.w.: .537 umoles/min per kg b.w.
  Biliary excretion rate per kg l.w.: 17.931 umoles/min per kg l.w.
  umoles in bile sample: 2.33 UMOLES
[1]; i.v., 40-50 min
  Bile flow: .03047 mL/min
  Bile flow per kg b.w.: .07005 ml/min per kg b.w.
  Bile flow per kg l.w.: 2.34 ml/min per kg l.w.
  Biliary excretion rate: .233 µmol/min
  Biliary excretion rate per kg b.w.: .535 umoles/min per kg b.w.
  Biliary excretion rate per kg l.w.: 17.882 umoles/min per kg l.w.
  umoles in bile sample: 2.33 UMOLES
[1]; i.v., 50-60 min
  Bile flow: .02817 mL/min
  Bile flow per kg b.w.: .06476 ml/min per kg b.w.
  Bile flow per kg l.w.: 2.164 ml/min per kg l.w.
  Biliary excretion rate: .238 µmol/min
  Biliary excretion rate per kg b.w.: .548 umoles/min per kg b.w.
  Biliary excretion rate per kg l.w.: 18.307 umoles/min per kg l.w.
  umoles in bile sample: 2.38 UMOLES
[1]; i.v., 60-70 min
  Bile flow: .02721 mL/min
  Bile flow per kg b.w.: .06255 ml/min per kg b.w.
  Bile flow per kg l.w.: 2.09 ml/min per kg l.w.
  Biliary excretion rate: .146 µmol/min
  Biliary excretion rate per kg b.w.: .336 umoles/min per kg b.w.
  Biliary excretion rate per kg l.w.: 11.228 umoles/min per kg l.w.
  umoles in bile sample: 1.46 UMOLES
[1]; i.v., 70-80 min
  Bile flow: .02653 mL/min
  Bile flow per kg b.w.: .06099 ml/min per kg b.w.
  Bile flow per kg l.w.: 2.038 ml/min per kg l.w.
  Biliary excretion rate: .141 µmol/min
  Biliary excretion rate per kg b.w.: .324 umoles/min per kg b.w.
  Biliary excretion rate per kg l.w.: 10.811 umoles/min per kg l.w.
  umoles in bile sample: 1.41 UMOLES
[1]; i.v., 80-90 min
  Bile flow: .02586 mL/min
  Bile flow per kg b.w.: .05945 ml/min per kg b.w.
  Bile flow per kg l.w.: 1.986 ml/min per kg l.w.
  Biliary excretion rate: .121 µmol/min
  Biliary excretion rate per kg b.w.: .277 umoles/min per kg b.w.
  Biliary excretion rate per kg l.w.: 9.262 umoles/min per kg l.w.
  umoles in bile sample: 1.21 UMOLES
[1]; [3]
  Bile flow: .02093 mL/min
  Bile flow per kg b.w.: .04811 ml/min per kg b.w.
  Bile flow per kg l.w.: 1.608 ml/min per kg l.w.
  Biliary excretion rate: .013 µmol/min
  Biliary excretion rate per kg b.w.: .031 umoles/min per kg b.w.
  Biliary excretion rate per kg l.w.: 1.021 umoles/min per kg l.w.
  umoles in bile sample: .13 UMOLES
[1]; i.v., through 0-10 min
  umoles running total in bile: 1.36 UMOLES
[1]; i.v., through 10-20 min
  umoles running total in bile: 3.48 UMOLES
[1]; i.v., through 20-30 min
  umoles running total in bile: 6.09 UMOLES
[1]; i.v., through 30-40 min
  umoles running total in bile: 8.42 UMOLES
[1]; i.v., through 40-50 min
  umoles running total in bile: 10.75 UMOLES
[1]; i.v., through 50-60 min
  umoles running total in bile: 13.13 UMOLES
[1]; i.v., through 60-70 min
  umoles running total in bile: 14.60 UMOLES
[1]; i.v., through 70-80 min
  umoles running total in bile: 16.00 UMOLES
[1]; i.v., through 80-90 min
  umoles running total in bile: 17.21 UMOLES
[1]; i.v., through period printed 10-0 min (pre-injection)
  umoles running total in bile: .13 UMOLES
[1]; i.v., vs IOP, FIG. 8
  rate of biliary excretion relative to IOP: approximately twice
[1]; Percentage of dose in bile sample, 0-10 min
  dose excreted at 10 min: 2.82%
[1]; Percentage of dose in bile sample, 10-20 min
  dose excreted at 20 min: 4.88%
[1]; Percentage of dose in bile sample, 20-30 min
  dose excreted at 0.5 h: 5.99%
[1]; Percentage of dose in bile sample, 30-40 min
  dose excreted at 40 min: 5.37%
[1]; Percentage of dose in bile sample, 40-50 min
  dose excreted at 50 min: 5.35%
[1]; Percentage of dose in bile sample, 50-60 min
  dose excreted at 1 h: 5.48%
[1]; Percentage of dose in bile sample, 60-70 min
  dose excreted at 70 min: 3.36%
[1]; Percentage of dose in bile sample, 70-80 min
  dose excreted at 80 min: 3.24%
[1]; Percentage of dose in bile sample, 80-90 min
  dose excreted at 1.5 h: 2.77%
[1]; Percentage of dose in bile sample, period 10-0 min (pre-injection)
  dose excreted at 0 h: 0.31%
[1]; Percentage of dose running total in bile, through 0-10 min
  dose excreted at 10 min: 3.12%
[1]; Percentage of dose running total in bile, through 10-20 min
  dose excreted at 20 min: 8%
[1]; Percentage of dose running total in bile, through 20-30 min
  dose excreted at 0.5 h: 14%
[1]; Percentage of dose running total in bile, through 30-40 min
  dose excreted at 40 min: 19.4%
[1]; Percentage of dose running total in bile, through 40-50 min
  dose excreted at 50 min: 24.7%
[1]; Percentage of dose running total in bile, through 50-60 min
  dose excreted at 1 h: 30.2%
[1]; Percentage of dose running total in bile, through 60-70 min
  dose excreted at 70 min: 33.6%
[1]; Percentage of dose running total in bile, through 70-80 min
  dose excreted at 80 min: 36.8%
[1]; Percentage of dose running total in bile, through 80-90 min
  dose excreted at 1.5 h: 39.6%
[1]; Percentage of dose running total in bile, through period printed 10-0 min (pre-injection)
  dose excreted at 0 h: 0.31%
[2]; 0-20 min
  Urine concentration: 0 µM
[2]; 20-40 min
  Urine concentration: 0 µM
